Reference: PubChem BioAssay (NCI)
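Grown in 96-well plates, cells were treated for 48 hours with each compound at five concentrations. Insufficient inhibition: endpoint recorded as highest concentration tested. GI50 is the concentration that inhibits growth by half. TGI denotes the concentration required for complete inhibition of growth.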

system: SR leukemia; test: DTP human tumour cell line panel, 48 h

SMILES | GI50 | TGI
COc1ccc(-c2noc(N)c2-c2cc(OC)c3c(c2)OCO3)cc1 | 0.523 µM | > 51.2 µM
NCCCn1c2c(c3ccccc3c1=O)C(=O)c1ccccc1-2 | 0.0743 µM | –
O=C1c2ccccc2C(=O)c2c(NCCN=Cc3ccccc3O)cccc21 | 0.944 µM | > 100 µM
Oc1ccc(/C=C/c2cc(O)cc3c2C(c2cc(O)cc(O)c2)C(c2ccc(O)c(O)c2)O3)cc1 (stereo not given) | – | 55.4 µM
CC1(C)N=C(N)N=C(N)N1c1cccc(OCCOc2cccc([N+](=O)[O-])c2)c1 | 0.543 µM | > 100 µM
O=C(NC1CCCCC1)c1ccc(Nc2ncnc3c2cnn3-c2ccccc2)cc1 | 11.6 µM | 49.1 µM
CCc1nc(Cl)c(Cl)c(Cl)n1 | – | > 100 µM
O=[N+]([O-])c1ccc(Sc2c3ccccc3nc3ccccc23)cn1 | – | > 100 µM
C=CCn1c(SCC(=O)Nc2ccc(C(=O)/C=C/c3cc(OC)c(OC)c(OC)c3)cc2)nnc1-c1ccc(OC)cc1 | 0.255 µM | > 46.1 µM
Clc1nc(Cl)c2ncn(Cc3ccccc3Cn3cnc4c(Cl)nc(Cl)nc43)c2n1 | 2.17 µM | 5.15 µM
COc1ccc(-c2ccc(NNC(=O)c3ccc(F)cc3)nn2)cc1OC | > 100 µM | > 100 µM
O=C(N/N=C/c1ccc(O)cc1O)c1cccnc1 | 3.21 µM | > 100 µM
O=C(NNc1cnccn1)c1nc2cc(F)ccc2n2cccc12 | 0.247 µM | > 100 µM
NCCCOc1cc2ccccc2cc1C(=O)NCCCOc1cc2ccccc2cc1C(=O)Nc1ccc(Cl)cc1O | 0.194 µM | 0.871 µM
NC(N)=N/N=C(\N=Nc1ccccc1)c1ccc(Cl)cc1 | 1.93 µM | 4.72 µM
Cc1cc(NCCCCNc2ccnc3cc(Cl)ccc23)nc(Nc2ccc(C(=O)N3CCCCC3)cc2)n1 | 0.24 µM | 0.855 µM

system: NCI-H460 lung; test: DTP human tumour cell line panel, 48 h

SMILES | GI50 | TGI
COc1ccc(-c2nn(-c3cccc(Cl)c3)cc2-c2nc(N)[nH]c(=O)c2C#N)cc1 | 6 µM | 27.7 µM
COc1cc2c3c(n(CCCN(CCO)CCO)c(=O)c2cc1OC)-c1cc2c(cc1C3=O)OCO2 | < 0.01 µM | 2.28 µM
CNCCn1c(=O)c2cc(OC)c(OC)cc2c2cnc3cc4c(cc3c21)OCO4 | < 0.01 µM | 0.217 µM
O=C(CCN1CCOCC1)Nc1cccc(-n2cc(-c3ccncc3)c(-c3ccc(Cl)c(O)c3)n2)c1 | 2.79 µM | 12.4 µM
C=C(C)[C@@H]1CC[C@]2(C)[C@H](CC[C@@H]3[C@@H]([C@@](C)(O)CCC=C(C)C)CC[C@]32C)[C@@]1(C)CCC(=O)O | 31.9 µM | > 100 µM
c1ccc(NCCSc2nc3ccccc3s2)cc1 | – | > 100 µM
Oc1ccc(Oc2cnc3ccccc3n2)cc1 | > 100 µM | > 100 µM
Cc1ccc2occ/c(=N\Nc3ccccc3)c2c1 | – | > 100 µM
CC(=O)NC1CONC1=O (stereo not given) | – | > 100 µM
Oc1ccc(N=Nc2nccs2)c(O)c1 | 3.67 µM | 17.9 µM
COc1ccc2c(c1)C(C)Cc1c(ncnc1-n1cnc3ccccc31)N2C (stereo not given) | 0.397 µM | 11.4 µM
COc1ccc(-c2noc(N)c2-c2cc(OC)c3c(c2)OCO3)cc1 | 3.13 µM | 28 µM
NCCCn1c2c(c3ccccc3c1=O)C(=O)c1ccccc1-2 | 0.0647 µM | 9.22 µM
O=C1c2ccccc2C(=O)c2c(NCCN=Cc3ccccc3O)cccc21 | 2.18 µM | 6.91 µM
CC1(C)N=C(N)N=C(N)N1c1cccc(OCCOc2cccc([N+](=O)[O-])c2)c1 | 0.541 µM | > 100 µM
O=C(NC1CCCCC1)c1ccc(Nc2ncnc3c2cnn3-c2ccccc2)cc1 | 7.09 µM | > 100 µM
CCc1nc(Cl)c(Cl)c(Cl)n1 | – | > 100 µM
O=[N+]([O-])c1ccc(Sc2c3ccccc3nc3ccccc23)cn1 | – | > 100 µM
C=CCn1c(SCC(=O)Nc2ccc(C(=O)/C=C/c3cc(OC)c(OC)c(OC)c3)cc2)nnc1-c1ccc(OC)cc1 | 0.698 µM | 2.59 µM
Clc1nc(Cl)c2ncn(Cc3ccccc3Cn3cnc4c(Cl)nc(Cl)nc43)c2n1 | 3.07 µM | 11.7 µM
COc1ccc(-c2ccc(NNC(=O)c3ccc(F)cc3)nn2)cc1OC | > 100 µM | > 100 µM
O=C(N/N=C/c1ccc(O)cc1O)c1cccnc1 | 1.18 µM | > 100 µM
O=C(NNc1cnccn1)c1nc2cc(F)ccc2n2cccc12 | 0.403 µM | > 100 µM
NCCCOc1cc2ccccc2cc1C(=O)NCCCOc1cc2ccccc2cc1C(=O)Nc1ccc(Cl)cc1O | 0.202 µM | 0.387 µM
NC(N)=N/N=C(\N=Nc1ccccc1)c1ccc(Cl)cc1 | 3.13 µM | 16.5 µM
Cc1cc(NCCCCNc2ccnc3cc(Cl)ccc23)nc(Nc2ccc(C(=O)N3CCCCC3)cc2)n1 | 1.78 µM | 3.78 µM
c1ccc2c(c1)c1ccccc1c1ccccc21 | > 100 µM | > 100 µM
Cc1c2c(C(N)=O)nccc2c(C)c2c1c1ccccc1n2Cc1ccccc1 | – | 28.8 µM

system: K-562 leukemia; test: DTP human tumour cell line panel, 48 h

SMILES | GI50 | TGI
COc1ccc(-c2nn(-c3cccc(Cl)c3)cc2-c2nc(N)[nH]c(=O)c2C#N)cc1 | 3.45 µM | > 100 µM
COc1cc2c3c(n(CCCN(CCO)CCO)c(=O)c2cc1OC)-c1cc2c(cc1C3=O)OCO2 | < 0.01 µM | –
CNCCn1c(=O)c2cc(OC)c(OC)cc2c2cnc3cc4c(cc3c21)OCO4 | 0.0252 µM | 2.2 µM
O=C(CCN1CCOCC1)Nc1cccc(-n2cc(-c3ccncc3)c(-c3ccc(Cl)c(O)c3)n2)c1 | 1.76 µM | 11.4 µM
C=C(C)[C@@H]1CC[C@]2(C)[C@H](CC[C@@H]3[C@@H]([C@@](C)(O)CCC=C(C)C)CC[C@]32C)[C@@]1(C)CCC(=O)O | 18.5 µM | 90.5 µM
c1ccc(NCCSc2nc3ccccc3s2)cc1 | – | > 100 µM
Oc1ccc(Oc2cnc3ccccc3n2)cc1 | > 100 µM | > 100 µM
Cc1ccc2occ/c(=N\Nc3ccccc3)c2c1 | – | > 100 µM
CC(=O)NC1CONC1=O (stereo not given) | – | > 100 µM
Oc1ccc(N=Nc2nccs2)c(O)c1 | 3.58 µM | 34.3 µM
COc1ccc2c(c1)C(C)Cc1c(ncnc1-n1cnc3ccccc31)N2C (stereo not given) | 0.384 µM | > 100 µM
COc1ccc(-c2noc(N)c2-c2cc(OC)c3c(c2)OCO3)cc1 | 0.405 µM | > 100 µM
NCCCn1c2c(c3ccccc3c1=O)C(=O)c1ccccc1-2 | 0.0857 µM | 10.4 µM
O=C1c2ccccc2C(=O)c2c(NCCN=Cc3ccccc3O)cccc21 | 2.47 µM | > 45.1 µM
CC1(C)N=C(N)N=C(N)N1c1cccc(OCCOc2cccc([N+](=O)[O-])c2)c1 | 2.1 µM | > 100 µM
CCc1nc(Cl)c(Cl)c(Cl)n1 | – | > 100 µM
O=[N+]([O-])c1ccc(Sc2c3ccccc3nc3ccccc23)cn1 | – | 6.66 µM
C=CCn1c(SCC(=O)Nc2ccc(C(=O)/C=C/c3cc(OC)c(OC)c(OC)c3)cc2)nnc1-c1ccc(OC)cc1 | 0.363 µM | > 100 µM
Clc1nc(Cl)c2ncn(Cc3ccccc3Cn3cnc4c(Cl)nc(Cl)nc43)c2n1 | 2.6 µM | 6.8 µM
COc1ccc(-c2ccc(NNC(=O)c3ccc(F)cc3)nn2)cc1OC | 58.7 µM | > 100 µM
O=C(NNc1cnccn1)c1nc2cc(F)ccc2n2cccc12 | 0.387 µM | > 100 µM
NCCCOc1cc2ccccc2cc1C(=O)NCCCOc1cc2ccccc2cc1C(=O)Nc1ccc(Cl)cc1O | 0.262 µM | 1.02 µM
NC(N)=N/N=C(\N=Nc1ccccc1)c1ccc(Cl)cc1 | 1.2 µM | 6.37 µM
c1ccc2c(c1)c1ccccc1c1ccccc21 | > 100 µM | > 100 µM
